According to publication PMC9709406 (Frontiers in Pharmacology, 2022):
Values joined by “and” are separate entries in the source; they are usually repeats but may differ in a detail not shown here. Equal entries are not always repeated. Where two headings read alike, the source gives them in different places.

Assays:
SHEE cells = assay: MTT assay, normal esophageal epithelial cell line SHEE; type: cell-based; conditions: Homo sapiens, 48 h, n = 5
Source text: (§1) The human cancer cells (H1650, H1975, KYSE70, KYSE410 and KYSE450) were purchased from the Type Culture Collection of the Chinese Academy of Sciences (Shanghai, China). The human immortalized normal esophageal epithelial cell line SHEE was donated by Dr. Enmin Li from the Laboratory of Tumor Pathology (Shantou University Medical College, Shantou, Guangdong, China). Drug-resistant cells (H1650TR, H1975OR, KYSE70TR, KYSE410TR and KYSE450TR) were induced by China-US (Henan) Hormel Cancer Institute. The cellswere cultured in RPMI-1640 complete growth medium containing 100 U/mL penicillin-streptomycin and 10% FBS. Based on the above medium formula, 100 nm/L paclitaxel was added in taxol-resistant cells, 100 nm/L gefitinib was added in gefitinib-resistant cells. The cells were incubated at 37 °C in an atmosphere containing 5% of CO2. The compounds were dissolved in DMSO to make a 50 mM stock solution and were diluted to the concentration of working solutions with complete growth medium before administration.
(§2) Cells were seeded in 96-well plates with 2,200–2,500 cells/well in100 μL. One day after seeding, test compounds with the concentration between 0 and 50 μM were added with 0.1% DMSO as control. Five multiple wells for each concentration. After 48 h, MTT was added and incubated in the plate for 1–4 h in the incubator. The absorbance at 490 nm was measured using a microplate reader (Thermo).

EGFR = biological target: T1, EGFR (Homo sapiens, UniProt P00533); assay: EGFR kinase assay (ELISA); type: biochemical; conditions: 25°C
T1 construct: purchased Active MOTIF
Description: Kinase inhibitory activities of the compounds were evaluated using the Protein Tyrosine Kinase Assay Kit (SignalChem (British Columbia, Canada)). The kinase enzyme of EGFR was purchased from Active MOTIF. The ELISA experiments were carried out according the instructions of the kit. Active kinases were incubated with indicated compounds in 1 × reaction buffer containing 20 μM substrate at 25°C for 1 h and 2 h, respectively. The absorbance was read with a multimode plate reader (PerkinElmer, United States) at 450 nm.

H1650 cells = assay: MTT assay for cell proliferation and cytotoxicity, H1650; type: cell-based; conditions: Homo sapiens, NCI-H1650, 48 h, H1650, n = 5
Source text: as §1, §2

KYSE450 cells = assay: MTT assay, KYSE450; type: cell-based, human; conditions: for IC50: Homo sapiens, KYSE-450, MTT, 48 h, KYSE450, n = 5, read-out: IC50 48 h KYSE450; for absorbance 490 nm, single well / mean absorbance 490 nm (row G) / mean absorbance 490 nm minus background (row H): KYSE450
Source text: as §1, §2

KYSE410 cells = assay: MTT assay, KYSE410; type: cell-based, human; conditions: for IC50: Homo sapiens, KYSE-410, MTT, 48 h, KYSE410, n = 5, read-out: IC50 48 h KYSE410
Source text: as §1, §2

KYSE70 cells = assay: MTT assay, KYSE70; type: cell-based, human; conditions: for IC50: Homo sapiens, KYSE-70, MTT, 48 h, KYSE70, n = 5
Source text: as §1, §2

H1975 cells = assay: MTT assay for cell proliferation and cytotoxicity, H1975; type: cell-based, human; conditions: Homo sapiens, NCI-H1975, 48 h, MTT, 48 h, H1975, n = 5; read-out: IC50 48 h H1975
Source text: as §1
as §2, with “After 48 h, MTT was added and incubated in the plate for 1–4 h in the incubator.” left out

[1] = concentration 12.5 (unit not given)
[2] = concentration 25 (unit not given)
[3] = concentration 50 (unit not given)
[4] = concentration 100 (unit not given)

T1 sequence (P00533 25-1210): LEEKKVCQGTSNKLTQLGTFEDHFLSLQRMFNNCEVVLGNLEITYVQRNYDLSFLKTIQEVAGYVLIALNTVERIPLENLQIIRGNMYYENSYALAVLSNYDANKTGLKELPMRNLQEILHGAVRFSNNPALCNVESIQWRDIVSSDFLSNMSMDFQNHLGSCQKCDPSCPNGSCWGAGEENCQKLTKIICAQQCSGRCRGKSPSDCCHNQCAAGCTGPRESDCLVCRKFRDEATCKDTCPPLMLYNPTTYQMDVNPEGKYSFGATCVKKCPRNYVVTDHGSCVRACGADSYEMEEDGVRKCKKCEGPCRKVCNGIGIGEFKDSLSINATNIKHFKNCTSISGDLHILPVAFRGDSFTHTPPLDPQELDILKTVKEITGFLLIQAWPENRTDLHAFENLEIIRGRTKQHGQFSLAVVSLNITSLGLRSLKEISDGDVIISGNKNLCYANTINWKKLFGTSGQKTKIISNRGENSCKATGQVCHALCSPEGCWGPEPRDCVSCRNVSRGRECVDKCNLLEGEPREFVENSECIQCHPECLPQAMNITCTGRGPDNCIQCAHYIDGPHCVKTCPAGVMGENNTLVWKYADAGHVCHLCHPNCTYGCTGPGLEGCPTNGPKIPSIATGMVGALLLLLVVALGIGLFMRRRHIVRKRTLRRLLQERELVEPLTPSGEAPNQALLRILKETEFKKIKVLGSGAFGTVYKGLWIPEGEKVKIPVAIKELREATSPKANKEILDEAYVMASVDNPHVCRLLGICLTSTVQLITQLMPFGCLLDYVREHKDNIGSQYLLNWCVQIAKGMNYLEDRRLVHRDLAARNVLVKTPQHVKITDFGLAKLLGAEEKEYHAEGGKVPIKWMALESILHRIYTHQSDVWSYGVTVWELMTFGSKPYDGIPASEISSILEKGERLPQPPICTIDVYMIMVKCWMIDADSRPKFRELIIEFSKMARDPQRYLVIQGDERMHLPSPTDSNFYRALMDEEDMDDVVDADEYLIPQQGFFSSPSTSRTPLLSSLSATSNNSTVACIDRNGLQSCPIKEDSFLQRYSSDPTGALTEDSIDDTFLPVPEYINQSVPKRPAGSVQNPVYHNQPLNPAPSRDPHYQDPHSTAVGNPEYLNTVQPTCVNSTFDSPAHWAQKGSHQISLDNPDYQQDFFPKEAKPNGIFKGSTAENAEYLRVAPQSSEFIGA

Row | SMILES | IC50 (SHEE cells) [µM] | IC50 (H1650 cells) [µM] | IC50 (KYSE450 cells) [µM] | absorbance 490 nm, single well (KYSE450 cells; [1]) | mean absorbance 490 nm (row G) (KYSE450 cells; [1]) | mean absorbance 490 nm minus background (row H) (KYSE450 cells; [1]) | absorbance 490 nm, single well (KYSE450 cells; [2]) | mean absorbance 490 nm (row G) (KYSE450 cells; [2]) | mean absorbance 490 nm minus background (row H) (KYSE450 cells; [2]) | absorbance 490 nm, single well (KYSE450 cells; [3]) | mean absorbance 490 nm (row G) (KYSE450 cells; [3]) | mean absorbance 490 nm minus background (row H) (KYSE450 cells; [3]) | absorbance 490 nm, single well (KYSE450 cells; [4]) | mean absorbance 490 nm (row G) (KYSE450 cells; [4]) | mean absorbance 490 nm minus background (row H) (KYSE450 cells; [4]) | IC50 (KYSE410 cells) [µM] | blank-corrected absorbance 490 nm relative to control (fraction) (KYSE410 cells; KYSE410, concentration 12.5) | melting point [°C] | IC50 (KYSE70 cells) [µM] | IC50 (H1975 cells) [µM] | also measured
1 | Clc1ccccc1-n1cc(-c2cccc(Nc3ncnc4cc5c(cc34)OCCOCCOCCO5)c2)nn1 [compound 3e] | 10.3 ± 0.84 | 5.61 ± 0.3 | 21.8 ± 1.47 | 0.5603 and 0.5422 and 0.5648 and 0.5469 | 0.5535 | 0.4989 | 0.3988 and 0.3524 and 0.3487 and 0.3334 | 0.3583 | 0.3036 | 0.0685 and 0.0639 and 0.0619 and 0.065 and 0.0672 | 0.0653 | 0.01062 | 0.0642 and 0.0659 and 0.0644 and 0.0663 | 0.0652 | 0.01052 | 11.7 ± 1.01 | 0.4649 | 125 to 127 | 7.75 ± 0.68 | 13.1 ± 1.02 | IC50 (EGFR; incubation 1 h, read-out: IC50 EGFR 1 h): 1290 nM; IC50 (EGFR; incubation 2 h, read-out: IC50 EGFR 2 h): 4410 nM; inhibition (1 minus fraction of control) (KYSE410 cells; KYSE410, concentration 12.5): 0.5351; blank-corrected absorbance 490 nm relative to control (fraction) (KYSE410 cells; KYSE410, concentration 25): 0.2124; inhibition (1 minus fraction of control) (KYSE410 cells; KYSE410, concentration 25): 0.7876; blank-corrected absorbance 490 nm relative to control (fraction) (KYSE410 cells; KYSE410, concentration 50): 0.02952; inhibition (1 minus fraction of control) (KYSE410 cells; KYSE410, concentration 50): 0.9705; blank-corrected absorbance 490 nm relative to control (fraction) (KYSE410 cells; KYSE410, concentration 100): 0.05985; inhibition (1 minus fraction of control) (KYSE410 cells; KYSE410, concentration 100): 0.9402; blank-corrected absorbance 490 nm relative to control (fraction) (KYSE70 cells; KYSE70, concentration 12.5): 0.1936; inhibition (1 minus fraction of control) (KYSE70 cells; KYSE70, concentration 12.5): 0.8064; blank-corrected absorbance 490 nm relative to control (fraction) (KYSE70 cells; KYSE70, concentration 25): 0.0586; inhibition (1 minus fraction of control) (KYSE70 cells; KYSE70, concentration 25): 0.9414; blank-corrected absorbance 490 nm relative to control (fraction) (KYSE70 cells; KYSE70, concentration 50): 0.07267; inhibition (1 minus fraction of control) (KYSE70 cells; KYSE70, concentration 50): 0.9273; blank-corrected absorbance 490 nm relative to control (fraction) (KYSE70 cells; KYSE70, concentration 100): 0.08298; inhibition (1 minus fraction of control) (KYSE70 cells; KYSE70, concentration 100): 0.917
2 | Cc1ccccc1Cn1cc(-c2cccc(Nc3ncnc4cc5c(cc34)OCCOCCOCCO5)c2)nn1 [compound 3n] | 8.05 ± 0.71 | 17 ± 1.27 | 13.4 ± 0.99 | 0.3403 and 0.3956 and 0.3877 | 0.3745 | 0.3163 | 0.0581 and 0.0586 and 0.0622 and 0.0619 | 0.0602 | 0.002 | 0.062 and 0.0626 and 0.0677 and 0.0632 | 0.06374 | 0.00554 | 0.0608 and 0.061 and 0.0613 and 0.0611 and 0.0627 | 0.06138 | 0.00318 | 8.23 ± 0.92 | 0.2414 | 114 to 117 | 6.87 ± 0.51 | 18.5 ± 1.43 | inhibition (1 minus fraction of control) (KYSE410 cells; KYSE410, concentration 12.5): 0.7586; blank-corrected absorbance 490 nm relative to control (fraction) (KYSE410 cells; KYSE410, concentration 25): 0.04668; inhibition (1 minus fraction of control) (KYSE410 cells; KYSE410, concentration 25): 0.9533; blank-corrected absorbance 490 nm relative to control (fraction) (KYSE410 cells; KYSE410, concentration 50): 0.02603; inhibition (1 minus fraction of control) (KYSE410 cells; KYSE410, concentration 50): 0.974; blank-corrected absorbance 490 nm relative to control (fraction) (KYSE410 cells; KYSE410, concentration 100): 0.07058; inhibition (1 minus fraction of control) (KYSE410 cells; KYSE410, concentration 100): 0.9294; blank-corrected absorbance 490 nm relative to control (fraction) (KYSE70 cells; KYSE70, concentration 12.5): 0.09055; inhibition (1 minus fraction of control) (KYSE70 cells; KYSE70, concentration 12.5): 0.9094; blank-corrected absorbance 490 nm relative to control (fraction) (KYSE70 cells; KYSE70, concentration 25): 0.002598; inhibition (1 minus fraction of control) (KYSE70 cells; KYSE70, concentration 25): 0.9974; blank-corrected absorbance 490 nm relative to control (fraction) (KYSE70 cells; KYSE70, concentration 50): 0.03637; inhibition (1 minus fraction of control) (KYSE70 cells; KYSE70, concentration 50): 0.9636; blank-corrected absorbance 490 nm relative to control (fraction) (KYSE70 cells; KYSE70, concentration 100): 0.0579; inhibition (1 minus fraction of control) (KYSE70 cells; KYSE70, concentration 100): 0.9421
3 | Brc1cc(Br)cc(Cn2cc(-c3cccc(Nc4ncnc5cc6c(cc45)OCCOCCOCCO6)c3)nn2)c1 [compound 3u] | > 50 | > 50 | > 50 | – | – | – | – | – | – | – | – | – | – | – | – | > 50 | – | 151 to 154 | > 50 | > 50 | –
4 | Ic1ccccc1-n1cc(-c2cccc(Nc3ncnc4cc5c(cc34)OCCOCCOCCO5)c2)nn1 [compound 3h] | 22.6 ± 1.19 | 30.6 ± 1.99 | 16.7 ± 1.31 | – | – | – | – | – | – | – | – | – | – | – | – | > 50 | – | 137 to 140 | 18.4 ± 1.05 | 12.1 ± 0.92 | –
